# Assay results: patent US8138158B2, “Compositions and methods for therapy for diseases characterized by defective chloride transport” (Children's Hospital & Research Center at Oakland, priority 1997, dated 2012)
# Legend:
# [1] = target: T1, CFTR Cl channels (Homo sapiens, UniProt P13569); experiment: Outside-out single channel patch clamp on Calu-3 cells; format: cell-based
# T1 construct: Calu-3 airway cells which express large amounts of native CFTR; endogenous in cells; host or cells: Calu-3 human airway epithelial cells
# T1 sequence (P13569 whole entry): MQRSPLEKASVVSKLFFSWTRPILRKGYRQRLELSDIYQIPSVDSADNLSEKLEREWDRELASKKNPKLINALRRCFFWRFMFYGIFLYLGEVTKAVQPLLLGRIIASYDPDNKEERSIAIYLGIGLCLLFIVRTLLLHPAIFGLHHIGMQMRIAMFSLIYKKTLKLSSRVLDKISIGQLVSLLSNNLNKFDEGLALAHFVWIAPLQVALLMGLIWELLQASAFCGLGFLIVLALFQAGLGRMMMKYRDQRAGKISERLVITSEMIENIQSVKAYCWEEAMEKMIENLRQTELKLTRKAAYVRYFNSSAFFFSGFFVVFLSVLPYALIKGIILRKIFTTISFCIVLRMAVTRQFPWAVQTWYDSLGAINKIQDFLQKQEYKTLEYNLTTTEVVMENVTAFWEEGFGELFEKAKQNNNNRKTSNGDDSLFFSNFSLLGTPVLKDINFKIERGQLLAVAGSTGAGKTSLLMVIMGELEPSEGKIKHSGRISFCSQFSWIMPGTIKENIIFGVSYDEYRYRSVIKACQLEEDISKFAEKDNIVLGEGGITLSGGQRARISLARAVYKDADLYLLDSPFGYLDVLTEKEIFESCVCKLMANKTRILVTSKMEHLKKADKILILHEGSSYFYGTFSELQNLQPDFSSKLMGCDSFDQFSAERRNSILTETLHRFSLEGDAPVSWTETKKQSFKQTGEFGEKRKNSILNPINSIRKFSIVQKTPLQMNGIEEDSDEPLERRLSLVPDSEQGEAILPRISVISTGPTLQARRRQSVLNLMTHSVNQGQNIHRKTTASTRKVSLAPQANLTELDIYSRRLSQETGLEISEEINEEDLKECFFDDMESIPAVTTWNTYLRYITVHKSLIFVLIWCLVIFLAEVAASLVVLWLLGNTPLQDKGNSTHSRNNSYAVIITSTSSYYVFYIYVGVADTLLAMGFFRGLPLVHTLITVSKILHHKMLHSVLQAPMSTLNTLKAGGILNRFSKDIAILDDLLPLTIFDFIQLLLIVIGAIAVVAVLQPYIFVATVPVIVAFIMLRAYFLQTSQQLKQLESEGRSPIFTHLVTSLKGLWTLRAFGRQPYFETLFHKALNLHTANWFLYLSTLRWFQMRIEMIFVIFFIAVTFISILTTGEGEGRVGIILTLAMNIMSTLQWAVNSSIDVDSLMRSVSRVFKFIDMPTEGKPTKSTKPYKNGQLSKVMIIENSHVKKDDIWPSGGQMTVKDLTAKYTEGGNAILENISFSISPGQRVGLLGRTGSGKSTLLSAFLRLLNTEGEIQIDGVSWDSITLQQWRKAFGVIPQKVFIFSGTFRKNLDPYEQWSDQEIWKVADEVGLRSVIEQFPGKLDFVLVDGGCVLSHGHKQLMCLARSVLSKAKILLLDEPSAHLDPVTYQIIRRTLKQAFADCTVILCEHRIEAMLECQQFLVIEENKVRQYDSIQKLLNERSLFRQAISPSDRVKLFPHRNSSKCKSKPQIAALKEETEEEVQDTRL
# Description: Patch clamp analysis. Single channel patch clamp studies were performed on Calu-3 cells at 37° C. The outside-out recording mode was established via the whole cell mode as described (Fischer, H. (2001) in Methods in Molecular Medicine, […]. & Walker, J. M. (Humana Press Inc, Totowa), pp. 49-66.). The bath solution contained (in mM) 145 NaCl, 1.7 CaCl2, 1 MgCl2, 10 Hepes, 10 glucose, pH=7.4. The pipette solution contained (in mM): 15 N-methyl-D-glucamine (NMG) Cl, 10 EGTA, 1 MgCl2, 10 Hepes, 10 glucose, 120 NMG-gluconate, 5 MgATP, 0.1 LiGTP, pH=7.4. […] The regulatory role of vitamin C on Cl ion channel activity was studied in Calu-3 airway cells which express large amounts of native CFTR as their major Cl conductance ([…]., Widdicombe, J. H. & Wine, J. J. (1994) Am. J. Physiol. 266, […]-[…]). […] Details of the single channel recording are illustrated in FIG. 20C. […] At negative potentials no channel openings were resolved indicating Cl-over-gluconate selectivity. Cyclic AMP is the major intracellular messenger for the activation of CFTR. We tested the possibility that L-ascorbic acid increased intracellular cAMP levels [cAMP], by either turning on cAMP production or preventing cAMP degradation. FIG. 20E compares whole cell cAMP levels of Calu-3 cells challenged with either increasing concentrations of L-ascorbic acid or the cAMP agonist forskolin.
# [2] = tested on: CF15 monolayers homozygous for ΔF508 CFTR; experiment: Short-circuit current across CF15 monolayers homozygous for ΔF508 CFTR; format: cell-based, human
# Description: Human airway cell culture. The human submucosal serous gland-like cell line Calu-3, the CF nasal epithelial cell line homozygous for ΔF508 CFTR (CF15) and human tracheal primary cultures (hTE) were cultured as described (Jefferson, D. M., Valentich, J. D., Marini, F. C., Grubman, S. A., Iannuzzi, M. C., Dorkin, H. L., Li, M., Klinger, K. W. & Welsh, M. J. (1990) Am. J. Physiol. 259, L496-L505. Sachs, L. A., Finkbeiner, W. E. & Widdicombe, J. H. (2003) In Vitro Cell Dev. Biol. Anim. 39, 56-62.). Wildtype CFTR-corrected CF15 cells were generated via adenovirus-mediated gene transfer. Growth media were nominally free of ascorbic acid (<10 μm, University Pathology Inc., Salt Lake City, Utah). For transepithelial measurements cells were grown on permeable filter inserts and used after 3 to 10 days.
# Short-circuit current measurement. Calu-3 or CF15 cells were grown as monolayers, mounted in Ussing chambers and short-circuit current (ISC) was recorded as described (Illek, B. & Fischer, H. (1998) Am. J. Physiol. 275, L902-L910). At 20-50 second intervals, transepithelial voltage was clamped from zero to 2 mV and the transepithelial resistance (Rte) was calculated. A serosa-to-mucosa-directed Cl gradient was applied. Serosal Ussing chamber solution contained (in mM): 120 NaCl, 20 NaHCO3, 5 KHCO3, 1.2 NaH2PO4, 5.6 glucose, 2.5 CaCl2, 1.2 MgCl2. In mucosal Ussing chamber solutions, all Cl salts were exchanged for gluconate salts.
# The CF15 cell line was used to determine whether ascorbate-stimulated Cl currents were solely mediated by the CFTR Cl conductance. The CF15 cell line is characterized by the absence of functional CFTR in the apical plasma membrane but the presence of other non-CFTR Cl conductances (Jefferson, D. M., Valentich, J. D., Marini, F. C., Grubman, S. A., Iannuzzi, M. C., Dorkin, H. L., Li, M., Klinger, K. W. & Welsh, M. J. (1990) Am. J. Physiol. 259, L496-L505). A concentration of L-ascorbic acid that lay within the upper plateau of the dose response curve (500 μm) was applied and ascorbate-stimulated Cl currents in CF15 vs. wildtype CFTR-corrected CF15 monolayers was compared (FIG. 23A). […] The defective response to L-ascorbic acid was reversed in wildtype CFTR-corrected CF15 epithelia such that ISC responded promptly to L-ascorbic acid (ΔISC=7.5±0.5 μA/cm^2, n=6). The ascorbate-stimulated current was further activated by the cAMP agonist forskolin and total stimulated ISC averaged 12.1±1.1 μA/cm^2 (FIG. 4B). The ascorbate-stimulated Cl current reached 60±15% of the forskolin-stimulated current in CFTR-corrected CF15 monolayers, which was close to the corresponding findings in Calu-3 monolayers (68%, see FIG. 21A). […]
# In this example, chloride currents stimulated by L-ascorbate or D-ascorbate were measured in CF15 versus. wildtype CFTR-corrected CF15 monolayers. A concentration of L-ascorbate (1 mM) or D-isoascorbate (300 μm) that lay within the upper plateau of the dose-response curve was applied to cells and the resulting chloride currents stimulated in CF15 versus wildtype CFTR-corrected CF15 monolayers were measured (FIG. 25 A-H). […]
# The functional activation of ΔF508 CFTR was determined after correction of the underlying trafficking defect of ΔF508 CFTR using S-Nitrosoglutathione (Zaman, et al., Biochem Biophys Res Commun 284: 65-70, 2001; Snyder, et al., American Journal of Respiratory and Critical Care Medicine 165: 922-6, 2002; Andersson, et al. Biochemical and Biophysical Research Communication 297(3): 552-557, 2002.). […]
smiles,measurement,setting,value
"O=C1O[C@H](C(O)CO)C(O)=C1O (stereo partly drawn) [L-ascorbic acid, L-xyloascorbic acid]",average single channel open probability (Po) increased from zero to,"[1]; 100 μM L-ascorbic acid, n=4",0.21±0.08
same,CFTR Cl channel openings,[1]; applied to extracellular surface of the patched membrane,induced openings of CFTR Cl channels
same,slope conductance of ascorbate-stimulated chloride conductance,[1]; n=4,8.9±0.2 pS
same,transepithelial chloride currents increased on average by,"[2]; CF15 treated with 1 mM SNOG for 5-24 hours, L-ascorbate 1 mM, n=10",2.1±0.1
same,ΔISC,"[2]; uncorrected CF15, L-ascorbic acid 500 μm, n=5",1.3±0.5 μA/cm^2
same,ΔIsc,"[2]; untreated CF epithelia, L-ascorbate 1 mM, amiloride, n=13",1.1±0.3 μA/cm^2
